Assay results reported in patent US12478592B2, “Dosage regime with esketamine for treating neuropsychiatric or neurological conditions” (priority 2019, dated 2025).

Columns and labels:
[1] = Single dose crossover study in healthy volunteers, pharmacokinetics
Source text: A randomized, open-label 4-way crossover study in 16 healthy male and female subjects was held wherein said subjects were placed in a randomly assigned order and administered esketamine. Each subject was assigned to 1 of 4 treatment sequences according to a randomization code such that 4 subjects were assigned to each treatment sequence. There was a wash-out period of at least 7 days between dosing periods with doses consisting of either oral or intravenous esketamine hydrochloride. The study consisted of an eligibility screening period of 28 days, 4 study periods involving administration of a single dose of esketamine hydrochloride followed by safety assessments with blood sampling for PK purposes up to 72 hours after study drug administration, discharge at 72 hours after study drug administration and a follow-up visit 7-14 days after the last PK blood sample was taken on Day 4.

[2] = system: human peripheral blood lymphocytes (HPBL)
Procedure: The clastogenic potential of (S)-norketamine was evaluated in the in vitro mammalian chromosome aberration test using human peripheral blood lymphocytes (HPBL) in both the absence and presence of an induced metabolic activation system (the 9000 g supernatant [S9] microsomal fraction of liver homogenate from rats exposed to phenobarbital/5,6-benzoflavone).
The study was conducted in 2 phases, with a preliminary toxicity test used to determine the appropriate concentrations for the definitive chromosomal aberration assay. Water was used as a negative (vehicle) control. In both phases, the cells were treated for 3 and 21 hours in the absence of S9 mix and for 3 hours in the presence of S9 mix. The mitotic index was assessed for all cultures to determine cytotoxicity. Ten concentrations, ranging from 2.62 to 260.16 μg/mL, were evaluated in the preliminary toxicity test. […] (S)-Norketamine concentrations of 93.66, 156.10 or 260.16 μg/mL were selected for metaphase analysis.

[3] = system: human peripheral blood lymphocytes (HPBL); remark: listed apart in the source
Procedure: The clastogenic potential of esketamine was evaluated in the in vitro mammalian chromosome aberration test using human peripheral blood lymphocytes (HPBL) in both the absence and presence of an induced metabolic activation system (the 9000 g supernatant [S9] microsomal fraction of liver homogenate from rats exposed to Aroclor-1254).
The study was conducted in 2 phases, with a preliminary toxicity test used to determine the appropriate concentrations for the definitive chromosomal aberration assay. Water was used as a negative (vehicle) control. Toxicity (defined as ≥45% reduction in MI relative to the vehicle control) was evaluated at 9 concentrations, ranging from 0.0238 to 238 μg/ml, after exposure of HPBL to esketamine for 20 hours in the absence of S9 activation, or for 4 hours, either in the presence or absence of S9 activation, followed by a 16-hour recovery period.
The definitive chromosome aberration assay evaluated HPBL cells after exposure to esketamine for 20 hours in the absence of S9 activation, or for 4 hours, either in the presence of absence of S9 activation, followed by a 16-hour recovery. Positive controls for chromosomal aberrations in non-activated and S9-activated evaluations, respectively, consisted of mitomycin C (MMC, 0.6 and 0.3 μg/mL for the 4- and 20-hour exposures, respectively) and cyclophosphamide (CP, 2.5, 5, and 7.5 μg/mL). […] Initially, the doses selected for evaluation of chromosomal aberrations were 60, 120, and 238 μg/mL for the non-activated 4- and 20-hour treatment conditions; and 30, 60, and 200 μg/mL for the S9-activated 4-hour treatment condition.

male Sprague Dawley rats = experiment: 7-day forced swim test; type: in vivo; settings: 15 mg/kg i.p., single acute dose
Procedure: Groups of, 6-7 week old, male Sprague Dawley rats were administered esketamine by intraperitoneal injection and their behavioral despair assessed by a forced swim test. The animals, in cohorts of 10, were administered either a single dose of 15 mg/kg esketamine, 7 daily doses of either 7.5 or 15 mg/kg esketamine or a vehicle control, and the test performed 30 minutes after dosing. Statistical evaluation was performed using an ordinary One-Way ANOVA, t Test and an Uncorrected Fisher's LSD comparisons test.

liver of Crl:CD(SD) rats = experiment: In vivo single cell gel electrophoresis (comet) assay, liver; settings: for median % tail intensity (% TI) in liver vs vehicle control: 3 doses, p<0.001; for lower benchmark dose (BMDL50), single slide median Tail Intensity: PROAST v63.3
[4] = system: healthy male and female subjects; experiment: Single dose crossover study in healthy volunteers, adverse events; type: in vivo, human
Source text: A total of 128 TEAEs (treatment-emergent adverse event) were reported by 15 of 16 (94%) subjects of which 79 TEAEs reported by 14 of 16 (88%) subjects were to be related to the study drug. Overall, a total of 14 of 128 TEAEs reported by 4 (25%) subjects were of moderate severity and 114 of 128 TEAEs reported by 15 (94%) subjects were of mild severity. […] The most frequently occurring adverse events (reported more than twice) were headache, dizziness, hypokinesia, feeling abnormal, fatigue, euphoric mood inappropriate affect, nausea and hyperhidrosis. Table 4 presents the frequency of the most frequently reported related TEAEs as a percentage of the subjects that experienced an adverse effect per treatment.

Sprague Dawley rats [5] = experiment: Repeated dose 28 day study, toxicity; type: in vivo; settings: 28 days oral gavage; males 6, 10, 30 and females 2, 10, 20 mg/kg/day
Sprague Dawley rats [6] = experiment: 104 week carcinogenicity study; type: in vivo; settings: after 28 days at point of departure doses and at reduced doses after 730 days
Procedure: A 104 Week carcinogenicity study of esketamine administered via oral gavage to Sprague Dawley Rats is performed to evaluate the carcinogenic potential and determine the toxicokinetics of esketamine.
The study end-points include clinical observations, body weight changes, food consumption, bioanalytical toxicokinetic analysis, and anatomic macroscopic and microscopic pathology findings.

[7] = Repeated dose 28 day study, toxicokinetics; settings: for Dose normalized AUC0-inf: Day 1
Procedure: The objective of the study was to assess the potential toxicity, neurobehavioral effects, and toxicokinetics (TK) of esketamine when administered orally, via gavage, to Sprague Dawley rats for 28 days and to evaluate recovery during a 14-day drug-free period. Fifty male and 50 female rats were randomized into 4 groups (15/sex/Groups 1 and 4; 10/sex/Groups 2 and 3). Esketamine was administered via oral gavage once daily for 28 consecutive days to males at 0 (vehicle control), 6, 10 or 30 mg/kg/day and females at 0 (vehicle control), 2, 10 or 20 mg/kg/day in a dose volume of 10 mL/kg. Animals were observed until euthanized and necropsied on Day 29 (10/sex/group) or 43 (5/sex from Groups 1 and 4). Toxicity was evaluated based on mortality, clinical observations, body weights, food consumption, ophthalmology, motor activity, functional observational battery, clinical pathology (clinical chemistry, hematology, coagulation and urinalysis), organ weights, anatomic (macroscopic or microscopic) pathology. Toxicokinetic animals (3/sex/Group 1; 6/sex/Groups 2, 3, and 4) were similarly dosed and bled on Day 1 and during Week 4 for toxicokinetic analysis.

[8] = plasma analyte after single 20 mg oral solution of esketamine hydrochloride
[9] = Day 28, male rats, 6 mg/kg oral gavage once daily
[10] = Day 28, male rats, 10 mg/kg oral gavage once daily

## N[C@]1(c2ccccc2Cl)CCC[C@H](O)C1=O [(2S,6S)-OH-Norketamine, (2S,6S)-2-Amino-2-(2-chlorophenyl)-6-hydroxycyclohexanone]
[1]; plasma analyte after single 20 mg oral solution of esketamine hydrochloride, 15 subjects
  Cmax, Geometric mean (CV %): 46.46 (28%) ng/ml

## N[C@]1(c2ccccc2Cl)CCCCC1=O [(S)-norketamine, (2S)-2-(2-Chlorophenyl)-2-(amino) cyclohexanone]
[1]; [8]
  AUC0-inf, Geometric mean (CV %): 416.89 (19%) ng · h/ml
  AUC0-t, Geometric mean (CV %): 404.96 (19%) ng · h/ml
  t1/2, Geometric mean (CV %): 8.88 (26%) h
[1]; plasma analyte after single 100 mg oral tablet of esketamine hydrochloride
  t1/2, Geometric mean (CV %): 9.27 (25%) h
[2]
  Toxicity (mitotic index), preliminary toxicity test: Toxicity was not observed at any dose
  clastogenicity, induction of structural and numerical chromosomal aberrations: non-clastogenic

## CO[C@@]12[C@H](COC(N)=O)C3=C(C(=O)C(C)=C(N)C3=O)N1C[C@@H]1N[C@@H]12 [MMC, mitomycin C]
[3]
  structural chromosomal aberrations, % of the cells: 13.3%
[3]; non-activated systems, positive control 0.6 and 0.3 μg/mL for 4- and 20-hour exposures
  mean MI value: 9%

## CN[C@]1(c2ccccc2Cl)CCCCC1=O [esketamine, (2S)-2-(2-Chlorophenyl)-2-(methylamino) cyclohexanone]
[1]; [8]
  t1/2, Geometric mean (CV %): 2.91 (37%) h
Male Sprague Dawley rats
  effect on immobility time: 42 % of control
Liver of Crl:CD(SD) rats; after 3 doses of treatment
  macroscopic examination: no test item related lesions
Liver of Crl:CD(SD) rats; female rats, 25 and 50 mg/kg/day
  group mean and median % TI values vs vehicle historical control range: outside of the current vehicle historical control range
Liver of Crl:CD(SD) rats; female rats, 25 and 50 mg/kg/day oral gavage
  median % tail intensity (% TI) in liver vs vehicle control: Statistically significant increases
Liver of Crl:CD(SD) rats; female rats
  lower benchmark dose (BMDL50), single slide median Tail Intensity: 9.83 mg/kg/day
Liver of Crl:CD(SD) rats; male and female rats, oral gavage
  DNA strand breaks in the liver: evidence of causing an increase
Liver of Crl:CD(SD) rats; male or female rats, any dose level
  Hedgehog cells in the liver: No Hedgehog cells were observed
Liver of Crl:CD(SD) rats; male rats, 75 mg/kg/day
  group mean and median % TI values vs vehicle historical control range: outside of the current vehicle historical control range
Liver of Crl:CD(SD) rats; male rats, 75 mg/kg/day oral gavage
  median % tail intensity (% TI) in liver vs vehicle control: Statistically significant increases
Liver of Crl:CD(SD) rats; male rats
  lower benchmark dose (BMDL50), single slide median Tail Intensity: 27.31 mg/kg/day
[4]; 0.3 mg/kg iv
  related TEAE Dizziness, percentage of subjects: 6%
  related TEAE Euphoric mood, percentage of subjects: 19%
  related TEAE Fatigue, percentage of subjects: 6%
  related TEAE Feeling abnormal, percentage of subjects: 13%
  related TEAE Headache, percentage of subjects: 19%
  related TEAE Hypokinesia, percentage of subjects: 6%
  related TEAE Inappropriate affect, percentage of subjects: 6%
  related TEAE Nausea, percentage of subjects: 6%
[4]; 20 mg oral solution
  related TEAE Feeling abnormal, percentage of subjects: 19%
  related TEAE Headache, percentage of subjects: 19%
  related TEAE Inappropriate affect, percentage of subjects: 6%
[4]; 20 mg oral tablet
  related TEAE Dizziness, percentage of subjects: 13%
  related TEAE Fatigue, percentage of subjects: 7%
  related TEAE Feeling abnormal, percentage of subjects: 7%
  related TEAE Hyperhidrosis, percentage of subjects: 7%
[4]; 100 mg oral tablet
  related TEAE Dizziness, percentage of subjects: 13%
  related TEAE Euphoric mood, percentage of subjects: 13%
  related TEAE Feeling abnormal, percentage of subjects: 20%
  related TEAE Headache, percentage of subjects: 13%
  related TEAE Hyperhidrosis, percentage of subjects: 7%
  related TEAE Hypokinesia, percentage of subjects: 13%
  related TEAE Inappropriate affect, percentage of subjects: 7%
  related TEAE Nausea, percentage of subjects: 20%
[4]; all treatments
  number of TEAEs related to the study drug: 79
[4]; all treatments, 16 subjects
  total number of TEAEs: 128
[4]; of 128 TEAEs
  number of TEAEs of mild severity: 114
  number of TEAEs of moderate severity: 14
Sprague Dawley rats [5]
  effects on clinical signs, body weights, food consumption, ophthalmology, motor activity, functional observational battery, clinical pathology or anatomic pathology: no esketamine-related effects
  mortality: no mortality
[3]
  Cochran-Armitage test for dose response, structural aberrations: positive for a dose response
  Toxicity (≥45% reduction in MI relative to the vehicle control), preliminary toxicity test: Toxicity was not observed at any dose
[3]; non-activated 4- and 20-hour treatment conditions
  cytotoxicity (≥45% reduction in mitotic index relative to the vehicle control): not observed at any esketamine dose
Sprague Dawley rats [6]
  genotoxic changes as shown in Examples 1 and 2: not identified
[7]; female rats, 2 mg/kg oral gavage
  Dose normalized AUC0-inf: 29.0 (ng * h/ml)/(mg/kg)
[7]; female rats, 10 mg/kg oral gavage
  Dose normalized AUC0-inf: 44.0 (ng * h/ml)/(mg/kg)
[7]; female rats, 20 mg/kg oral gavage
  Dose normalized AUC0-inf: 49.8 (ng * h/ml)/(mg/kg)
[7]; male rats, 6 mg/kg oral gavage
  Dose normalized AUC0-inf: 17.2 (ng * h/ml)/(mg/kg)
[7]; male rats, 10 mg/kg oral gavage
  Dose normalized AUC0-inf: 18.1 (ng * h/ml)/(mg/kg)
[7]; male rats, 30 mg/kg oral gavage
  Dose normalized AUC0-inf: 19.5 (ng * h/ml)/(mg/kg)
[7]; Day 28, female rats, 2 mg/kg oral gavage once daily
  Dose normalized AUC0-t: 31.0 (ng * h/ml)/(mg/kg)
[7]; Day 28, female rats, 10 mg/kg oral gavage once daily
  Dose normalized AUC0-t: 51.3 (ng * h/ml)/(mg/kg)
[7]; Day 28, female rats, 20 mg/kg oral gavage once daily
  Dose normalized AUC0-t: 53.2 (ng * h/ml)/(mg/kg)
[7]; [9]
  Cmax: 113.1 ng/mL
  Dose normalized AUC0-t: 10.2 (ng * h/ml)/(mg/kg)
[7]; [10]
  AUC0-t: 179 ng·h/mL
  Dose normalized AUC0-t: 17.9 (ng * h/ml)/(mg/kg)
[7]; Day 28, male rats, 30 mg/kg oral gavage once daily
  Dose normalized AUC0-t: 19.2 (ng * h/ml)/(mg/kg)
[7]; after normalization for dose level differences
  dose-normalized exposure, sex difference: males had lower exposures than females
[7]; exception: Cmax in females higher on Day 28
  exposure Day 28 compared to Day 1: Exposures were similar on Day 28 compared to Day 1
[7]; females, 2 to 20 mg/kg/day
  increase of exposure with dose: slightly greater than dose-proportional
[7]; males, 6 to 30 mg/kg/day
  increase of exposure with dose: generally dose-proportional
